A short description of series [1]: Stability of labelled substrate in CE assay without enzyme. To be noted: absence of enzyme, CE assay conditions. Format: physicochemical. From the text:
6S-N-acetyl-D-glucosamine was labelled at its reducing end with BODIPY which has a maximal emission absorbance of ∼503 nm, which can be detected by the EZ Reader II platform via LED-induced fluorescence. Non-radioactive microfluidic mobility shift carbohydrate sulfation assays were optimised in solution with a 12-sipper chip coated with CR8 reagent and performed using a PerkinElmer EZ Reader II system employing EDTA-based separation buffer and real-time kinetic evaluation of substrate desulfation. Pressure and voltage settings were adjusted manually (1.8 psi, upstream voltage: 2250 V, downstream voltage: 500 V) to afford optimal separation in the reaction mixture of the sulfated substrate and unsulfated glycan product, with a sample (sip) time of 0.2 s, and total assay times appropriate for the experiment. Individual de-sulfation assays were carried out at 28°C and were pre-assembled in a 384-well plate in a volume of 80 μl in the presence of substrate concentrations between 0.5 and 20 μM with 100 mM Bis-Tris-Propane (BTP) or Tris, dependent on the pH required, and 150 mM NaCl, 0.02% (v/v) Brij-35 and 5 mM CaCl2. The amount of de-sulfation was directly calculated in real-time using EZ Reader II software by measuring the sulfated carbohydrate : unsulfated carbohydrate ratio at each time point during the assay. […]

On the set-up of series [2]: method as in PMID 36876452. To be noted: pH range; cited from earlier work.

For `CC(=O)N[C@@H]1[C@@H](O)[C@H](O)[C@@H](COS(=O)(=O)O)O[C@H]1NNC(=O)CCC1=[N+]2C(=Cc3c(C)cc(C)n3[B-]2(F)F)C=C1` [6S-GlcNAc-BODIPY], the “amount of unsulfated substrate over the course of the reaction (stability)” value in series [1] is given as “remained constant”.
In the case of `Cc1cc(C)n2c1C=C1C=CC(CCC(=O)NN)=[N+]1[B-]2(F)F` [BODIPY-FL hydrazide, 4,4-difluoro-5,7-dimethyl-4-bora-3a,4a-diaza-s-indacene-3-propionic acid, hydrazide], in series [2], the “stability over a variety of pH values” is 3–12.

(Values after paper PMC7897442, “Mobility shift-based electrophoresis coupled with fluorescent detection enables real-time enzyme analysis of carbohydrate sulfatase activity” (Biochemical Journal, 2021).)
